Results taken from PubChem BioAssay (NCI).
“And” between values parts separate entries of the source, which are not always exact repeats. Equal entries are not always repeated.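 These data come from cells grown in 96-well plates and exposed to compound for 48 hours at five concentrations. GI50 is the concentration that inhibits growth by half. TGI: concentration producing complete growth inhibition.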

Each compound was assayed on SF-539 CNS (assay: inhibition of tumour cell growth, NCI panel, 48 h).

**Q.** How did the GI50 turn out when `COc1ccc(-c2cc(-c3ccc(Nc4nc(Nc5ccccc5)nc(Nc5ccc(Cl)cc5)n4)cc3)nc(N)c2C#N)cc1` was run?
**A.** 0.857 µM

**Q.** And the TGI?
**A.** 1.77 µM

**Q.** With `O=c1n(CC2CO2)c(=O)n(CC2CO2)n1CC1CO1` (centres undefined) as the compound, how does the GI50 read?
**A.** 4.89 µM

**Q.** What about the TGI of the same compound?
**A.** > 54.3 µM

What follows are compounds tested on HCC-2998 colon (assay: inhibition of tumour cell growth, NCI panel, 48 h).

**Q.** How did the GI50 turn out when `Nc1cc2nc3ccccc3sc-2cc1=O` was run?
**A.** 3.95 µM

**Q.** And the TGI?
**A.** 13.3 µM

**Q.** Which GI50 does the source give for `COc1cc2nc(-c3ccc(C(F)(F)F)cc3)cc(OCCCN3CCC(O)CC3)c2cc1OC` here?
**A.** 4.07 µM

**Q.** And the TGI?
**A.** 19.9 µM

**Q.** Which TGI does the source give for `O=C1NNC(=O)c2ccccc2SSc2ccccc2C(=O)NNC(=O)c2ccccc2SSc2ccccc21` here?
**A.** > 100 µM

**Q.** With `COc1cc(C(=O)/C=C/c2sc(Cl)nc2Cl)cc(OC)c1OC` as the compound, how does the GI50 read?
**A.** 1.8 µM

**Q.** And the TGI?
**A.** 3.31 µM

**Q.** Which GI50 does the source give for `COc1cc2nc(C)nc(N[C@H](C)c3cc(N)cc(C(F)(F)F)c3)c2cc1O[C@H]1CCOC1` here?
**A.** 17 µM

**Q.** And the TGI?
**A.** 33.2 µM

**Q.** How did the TGI turn out when `O=C1c2ccccc2C(=O)c2sc(Nc3cccc(Cl)c3)nc21` was run?
**A.** 5.3 µM

**Q.** What does the source list for `CC1=C(C(=O)Nc2ccc(F)c(Cl)c2)C(c2ccc(Cl)cc2)NC(=O)N1` (centres undefined)?
**A.** GI50: 14.6 µM; TGI: 27.7 µM

**Q.** Which GI50 does the source give for `Fc1ccc(Nc2ncnc3ccc(-c4cnc5[nH]ccc5c4)cc23)cc1Cl` here?
**A.** 4.87 µM

**Q.** And the TGI?
**A.** > 100 µM

**Q.** What does the source list for `CN(C)CCCNC1=C(Cl)C(=O)c2ccccc2C1=O`?
**A.** GI50: 1.96 µM; TGI: 3.45 µM

**Q.** What does the source list for `O=C(Nc1ccc(F)cc1F)c1cc(I)ccc1O`?
**A.** GI50: 3.73 µM; TGI: 47 µM

**Q.** Which GI50 does the source give for `CCOc1ccccc1-n1c(CN2CCN(C(=O)COc3ccc(CNCCCCCCN4C5CCCC4CC(OC(=O)Nc4cc(C)ccc4OC)C5)cc3)CC2)nc2ccccc2c1=O` (centres undefined) here?
**A.** 1.57 µM

**Q.** What about the TGI of the same compound?
**A.** 3.15 µM

**Q.** How did the TGI turn out when `CSc1ccccc1C#C/C=C\C#Cc1ccccc1N1CCCC1=O` was run?
**A.** > 33.8 µM

**Q.** With `NC1CCC(Nc2nc(NCc3ccc(-c4ccco4)nc3)c3ncn(C4CCCC4)c3n2)CC1` (centres undefined) as the compound, how does the GI50 read?
**A.** 0.0316 µM

**Q.** And the TGI?
**A.** 0.627 µM

**Q.** With `O=C(CCl)N1c2ccccc2Oc2ccc3ccccc3c21` as the compound, how does the GI50 read?
**A.** 1.86 µM

**Q.** What about the TGI of the same compound?
**A.** 3.59 µM

**Q.** What does the source list for `CCCCCCCCSC1=CC(=O)c2nc3ccccc3c3ccnc1c23`?
**A.** GI50: > 100 µM; TGI: > 100 µM

**Q.** For `Cc1ccc(-c2nnc(-c3ccc4ccccc4c3)o2)cc1`, which TGI is on record?
**A.** > 100 µM

**Q.** Which results are given for `COc1ccc(-c2cc(-c3ccc(Nc4nc(Nc5ccccc5)nc(Nc5ccc(Cl)cc5)n4)cc3)nc(N)c2C#N)cc1`?
**A.** GI50: 1.41 µM; TGI: 4.41 µM

**Q.** For `O=c1n(CC2CO2)c(=O)n(CC2CO2)n1CC1CO1` (centres undefined), which GI50 is on record?
**A.** 2.17 µM

**Q.** And the TGI?
**A.** 37.7 µM

Each compound was assayed on SNB-75 CNS (assay: inhibition of tumour cell growth, NCI panel, 48 h).

**Q.** `Nc1cc2nc3ccccc3sc-2cc1=O` was tested. Which GI50 did it give?
**A.** 2.59 µM

**Q.** What about the TGI of the same compound?
**A.** 7.71 µM

**Q.** `COc1cc2nc(-c3ccc(C(F)(F)F)cc3)cc(OCCCN3CCC(O)CC3)c2cc1OC` was tested. Which GI50 did it give?
**A.** 2.58 µM

**Q.** And the TGI?
**A.** 10.8 µM

**Q.** How did the TGI turn out when `O=C1NNC(=O)c2ccccc2SSc2ccccc2C(=O)NNC(=O)c2ccccc2SSc2ccccc21` was run?
**A.** 50 µM

**Q.** For `COc1cc(C(=O)/C=C/c2sc(Cl)nc2Cl)cc(OC)c1OC`, which GI50 is on record?
**A.** 1.66 µM

**Q.** What about the TGI of the same compound?
**A.** 3.8 µM

**Q.** Which GI50 does the source give for `COc1cc2nc(C)nc(N[C@H](C)c3cc(N)cc(C(F)(F)F)c3)c2cc1O[C@H]1CCOC1` here?
**A.** 10.4 µM

**Q.** What about the TGI of the same compound?
**A.** 23.3 µM

**Q.** `O=C1c2ccccc2C(=O)c2sc(Nc3cccc(Cl)c3)nc21` was tested. Which TGI did it give?
**A.** 3.67 µM

**Q.** For `CC1=C(C(=O)Nc2ccc(F)c(Cl)c2)C(c2ccc(Cl)cc2)NC(=O)N1` (centres undefined), which GI50 is on record?
**A.** 5.28 µM

**Q.** What about the TGI of the same compound?
**A.** 30.5 µM

**Q.** For `Fc1ccc(Nc2ncnc3ccc(-c4cnc5[nH]ccc5c4)cc23)cc1Cl`, which GI50 is on record?
**A.** 1.23 µM

**Q.** And the TGI?
**A.** 3.42 µM

**Q.** For `CN(C)CCCNC1=C(Cl)C(=O)c2ccccc2C1=O`, which GI50 is on record?
**A.** 1.36 µM

**Q.** And the TGI?
**A.** 2.67 µM

**Q.** `O=C(Nc1ccc(F)cc1F)c1cc(I)ccc1O` was tested. Which GI50 did it give?
**A.** 1.36 µM

**Q.** What about the TGI of the same compound?
**A.** 4.58 µM

**Q.** With `CCOc1ccccc1-n1c(CN2CCN(C(=O)COc3ccc(CNCCCCCCN4C5CCCC4CC(OC(=O)Nc4cc(C)ccc4OC)C5)cc3)CC2)nc2ccccc2c1=O` (centres undefined) as the compound, how does the GI50 read?
**A.** 1.4 µM

**Q.** What about the TGI of the same compound?
**A.** 2.72 µM

**Q.** Which GI50 does the source give for `CSc1ccccc1C#C/C=C\C#Cc1ccccc1N1CCCC1=O` here?
**A.** > 10.8 µM

**Q.** And the TGI?
**A.** > 50 µM

**Q.** For `NC1CCC(Nc2nc(NCc3ccc(-c4ccco4)nc3)c3ncn(C4CCCC4)c3n2)CC1` (centres undefined), which GI50 is on record?
**A.** 0.0101 µM

**Q.** What about the TGI of the same compound?
**A.** 0.0299 µM

**Q.** What does the source list for `O=C(CCl)N1c2ccccc2Oc2ccc3ccccc3c21`?
**A.** GI50: 1.47 µM; TGI: 2.82 µM

**Q.** Which GI50 does the source give for `CCCCCCCCSC1=CC(=O)c2nc3ccccc3c3ccnc1c23` here?
**A.** > 100 µM

**Q.** And the TGI?
**A.** > 100 µM

**Q.** How did the TGI turn out when `Cc1ccc(-c2nnc(-c3ccc4ccccc4c3)o2)cc1` was run?
**A.** 82.7 µM

**Q.** Which GI50 does the source give for `COc1ccc(-c2cc(-c3ccc(Nc4nc(Nc5ccccc5)nc(Nc5ccc(Cl)cc5)n4)cc3)nc(N)c2C#N)cc1` here?
**A.** 0.737 µM

**Q.** What about the TGI of the same compound?
**A.** 2.71 µM

**Q.** Which GI50 does the source give for `O=c1n(CC2CO2)c(=O)n(CC2CO2)n1CC1CO1` (centres undefined) here?
**A.** 15.8 µM

**Q.** What about the TGI of the same compound?
**A.** > 100 µM

Each compound was assayed on UACC-62 melanoma (assay: inhibition of tumour cell growth, NCI panel, 48 h).

**Q.** How did the GI50 turn out when `Nc1cc2nc3ccccc3sc-2cc1=O` was run?
**A.** 1.55 µM

**Q.** And the TGI?
**A.** 3.33 µM

**Q.** What does the source list for `COc1cc2nc(-c3ccc(C(F)(F)F)cc3)cc(OCCCN3CCC(O)CC3)c2cc1OC`?
**A.** GI50: 2.61 µM; TGI: 7.28 µM

**Q.** `O=C1NNC(=O)c2ccccc2SSc2ccccc2C(=O)NNC(=O)c2ccccc2SSc2ccccc21` was tested. Which GI50 did it give?
**A.** 8.34 µM

**Q.** And the TGI?
**A.** 50 µM and > 100 µM

**Q.** Which results are given for `COc1cc(C(=O)/C=C/c2sc(Cl)nc2Cl)cc(OC)c1OC`?
**A.** GI50: 1.86 µM; TGI: 3.61 µM

**Q.** How did the GI50 turn out when `COc1cc2nc(C)nc(N[C@H](C)c3cc(N)cc(C(F)(F)F)c3)c2cc1O[C@H]1CCOC1` was run?
**A.** 16.3 µM

**Q.** And the TGI?
**A.** 31 µM

**Q.** How did the TGI turn out when `O=C1c2ccccc2C(=O)c2sc(Nc3cccc(Cl)c3)nc21` was run?
**A.** 3.25 µM

**Q.** What does the source list for `CC1=C(C(=O)Nc2ccc(F)c(Cl)c2)C(c2ccc(Cl)cc2)NC(=O)N1` (centres undefined)?
**A.** GI50: 14.1 µM; TGI: 27.2 µM

**Q.** What does the source list for `Fc1ccc(Nc2ncnc3ccc(-c4cnc5[nH]ccc5c4)cc23)cc1Cl`?
**A.** GI50: 6.06 µM; TGI: 63.3 µM
